Experimental data reported in patent US11046716B2, “Beta-lactamase inhibitors” (priority 2015, dated 2021).

Assays:
[1] = target: T1, SHV-5 (Klebsiella pneumoniae, UniProt P0A3M1); assay: β-lactamase enzyme inhibition assay, SHV-5 (cefotaxime substrate); type: biochemical
T1 construct: made in house; host or cells: E. coli BL21(DE3)
Procedure: (§1) For SHV-5, Kpc-2, p99AmpC and OXA-1 β-lactamases, E. coli BL21(DE3) bacterial cells carrying expression plasmids (expressed as native untagged proteins) for the individual β-lactamases were grown in 1 L of Superbroth (Teknova Inc. Hollister, Calif.) supplemented with 100 μg/ml kanamycin selection and 1×5052 (0.5% glycerol, 0.05% glucose and 0.2% α-lactose) at 35° C. for 18-20 hours. Cells were harvested by centrifugation (4,000×g, 4° C., 20 min), resuspended in 50 ml of 10 mM HEPES pH 7.5 ( 1/20 of the initial volume). The cells were lysed by sonication (5 pulses of 45 seconds) at 45 W on ice. The lysates were clarified by centrifugation at 10,000×g for 40 minutes at 4° C. Samples were diluted 5-fold in 50 mM sodium acetate pH 5.0, stored overnight at 4° C., after which they were centrifuged at 10,000×g for 30 minutes to clarify, and filtered through 0.45 μm filters. The samples were loaded onto a 5 ml Capto S sepharose cation exchange column (GE Healthcare) pre-equilibrated with 50 mM sodium acetate pH 5.0. The column was washed with 5 column volumes of 50 mM sodium acetate pH 5.0 to wash out unbound protein and a linear gradient of NaCl (0 to 500 mM) was used to elute the protein (over 16 CV) from the column. Fractions were assayed for β-lactamase activity using Centa (Calbiochem, Gibbstown, N.J.) or Nitrocefin (EMD Millipore chemicals, Darmstadt, Germany) as a reporter β-lactamase substrate for activity in the isolated fractions. Active fractions were pooled, concentrated and further purified by gel filtration chromatography on a Superdex 75 prep grade gel filtration column (GE Healthcare, Piscataway, N.J.) pre-equilibrated in 50 mM Hepes pH 7.5, 150 mM NaCl. Active fractions were pooled concentrated, quantitated by BCA protein determination (Thermo Scientific, Rockford, Ill.), dialyzed into PBS and frozen at −80° C. in 20% glycerol until use.
(§2) An equal volume of diluted enzyme stock was added, and the plates were incubated at 37° C. for 15 min. Nitrocefin was used as substrate for p99 AmpC, VIM-2 and OXA-1 and dispensed into each well at a final concentration of 100 μM. Absorbance at 486 nm was immediately monitored for 10 min using a Biotek Powerwave XS2 microplate spectrophotometer using the GEN5 software package (Biotek Instruments, Winooski Vt.). In an analogous fashion, imipenem was used as substrate for Kpc-2 and Cefotaxime was used for SHV-5, while changes in absorbance upon hydrolysis of the β-lactam ring were monitored at 300 nm and 260 nm respectively in UV-transparent 96-well microtiter assay plates. Maximum rates of hydrolysis were compared to those in control wells (without inhibitors), and percentages of enzyme inhibition were calculated for each concentration of inhibitor. The concentration of inhibitor needed to reduce the initial rate of hydrolysis of substrate by 50% (IC50) was calculated as the residual activity of β-lactamase at 486 nm using GraFit version 7 kinetics software package (Erithacus Software, Surrey, UK).
(§3) Using the methodology described above, examples of the current invention were evaluated for their ability to inhibit β-lactamase enzymes from all four Ambler classifications (A through D). […] NT=Not tested.

[2] = target: T2, KPC-2 (Klebsiella pneumoniae, UniProt Q9F663); assay: β-lactamase enzyme inhibition assay, KPC-2 (imipenem substrate); type: biochemical; settings: Class A; imipenem substrate, 300 nm; read-out: KPC-2
T2 construct: made in house; host or cells: E. coli BL21(DE3)
Procedure: as §1, §2, §3

[3] = target: T3, VIM-2 (Escherichia coli, UniProt Q5U7L7); assay: β-lactamase enzyme inhibition assay, VIM-2 (nitrocefin substrate); type: biochemical; settings: Class B; nitrocefin substrate, 486 nm; read-out: VIM-2
T3 construct: made in house; host or cells: E. coli BL21(DE3)
Procedure: For Vim-2 metallo β-lactamase, the procedure was identical with the following exceptions, first the protein was not pH adjusted to pH 5 with 50 mM sodium acetate, second, the chromatography step was changed to a 5 ml Q sepharose anion exchange column pre-equilibrated with 50 mM Hepes pH 7.5, and elution of the protein was achieved by a linear gradient of NaCl (0-600 mM). Finally, the VIM-2 purification required a second run (3rd step) on the Q sepharose anion exchange column to achieve acceptable purity (>90%).
as §2, §3

[4] = target: T4, AmpC (Enterobacter cloacae, UniProt P05364); assay: β-lactamase enzyme inhibition assay, p99 AmpC (nitrocefin substrate); type: biochemical
T4 construct: made in house; host or cells: E. coli BL21(DE3)
Procedure: as §1, §2, §3

[5] = target: OXA-48 (UniProt Q6XEC0); assay: β-lactamase enzyme inhibition assay, Class D oxacillinase; type: biochemical; settings: read-out: OXA-48
[6] = system: E. coli expressing the Class A Extended Spectrum Beta-Lactamase (ESBL) CTX-M-15; assay: Broth microdilution MIC assay with ceftazidime, E. coli CTX-M-15; type: cell-based; settings: for MIC (μg/mL) of Exemplary Compounds in presence of fixed β-lactams: E. coli ESBL4 CTX-M-15: Fixed CAZ (ceftazidime) 4 μg/mL
Excerpt: (§4) To determine the ability of test compounds to potentiate the inhibition of the growth of bacterial strains that produce beta-lactamase enzymes in the presence of a β-lactam antibiotic, classic cell based broth microdilution MIC assays were employed. Six bacteria strains producing beta-lactamase enzymes were used: E. coli expressing the Class A Extended Spectrum Beta-Lactamase (ESBL) CTX-M-15, E. cloacae expressing the Class C P99, K. pneumoniae expressing the Class A carbapenemase KPC-2, P. aeruginosa expressing the Class B carbapenemase VIM-2, K. pneumoniae expressing the class A carbapenemase KPC-2 and the class B carbapenemase VIM-4, and K. pneumoniae producing the Class D carbapenemase OXA-48. The assay was conducted in Cation Adjusted Mueller Hinton Broth (CAMHB, BD #212322, BD Diagnostic Systems, Sparks, Md.). Bacteria strains were grown for 3-5 hours in CAMBH broth. Test compounds (Examples 1-94) were added to a microtiter plate in 2-fold serial dilutions in CAMHB in a final concentration range of 16 μg/mL to 0.125 μg/ml. An overlay of CAMHB containing a Beta-lactam was added to the compounds at a final static concentration of 4 μg/ml. […] In addition to the titration of test compounds the MICs of a panel of control beta-lactams is also tested to ensure the strains are behaving consistently from test to test. Once the test compound and antibiotics are added the plates can be inoculated according to CLSI broth microdilution method. After inoculation the plates are incubated for 16-20 hours at 37° C. then the Minimal Inhibitory Concentration (MIC) of the test compound is determined visually.
(§5) Using the methodology described above, examples of the current invention were evaluated for their ability to inhibit the growth of β-lactamase-producing bacteria in the presence of a β-lactam antibiotic.

[7] = system: K. pneumoniae expressing the Class A carbapenemase KPC-2; assay: Broth microdilution MIC assay with meropenem, K. pneumoniae KPC-2; type: cell-based; settings: Fixed Mero (meropenem) 4 μg/mL; K. p. 156319 KPC-3
Excerpt: as §4, §5

[8] = system: P. aeruginosa expressing the Class B carbapenemase VIM-2; assay: Broth microdilution MIC assay with meropenem, P. aeruginosa VIM-2; type: cell-based; settings: Fixed Mero (meropenem) 4 μg/mL; P. aerug. 2775 VIM-2
Excerpt: as §4, §5

[9] = system: K. pneumoniae expressing the class A carbapenemase KPC-2 and the class B carbapenemase VIM-4; assay: Broth microdilution MIC assay with meropenem, K. pneumoniae KPC-2 and VIM-4; type: cell-based; settings: Fixed Mero (meropenem) 4 μg/mL; K. p. A-1797 KPC-2 VIM-4
Excerpt: as §4, §5

[10] = system: K. pneumoniae producing the Class D carbapenemase OXA-48; assay: Broth microdilution MIC assay with meropenem, K. pneumoniae OXA-48; type: cell-based; settings: Fixed Mero (meropenem) 4 μg/mL; K. p. 11978 OXA-48
Excerpt: as §4, §5

[11] = system: E. cloacae expressing the Class C P99; assay: Broth microdilution MIC assay with ceftazidime, E. cloacae P99; type: cell-based; settings: Enterobacter cloacae, read-out: MIC alone
Excerpt: as §4, §5

T2 sequence (Q9F663 25-293, looked up): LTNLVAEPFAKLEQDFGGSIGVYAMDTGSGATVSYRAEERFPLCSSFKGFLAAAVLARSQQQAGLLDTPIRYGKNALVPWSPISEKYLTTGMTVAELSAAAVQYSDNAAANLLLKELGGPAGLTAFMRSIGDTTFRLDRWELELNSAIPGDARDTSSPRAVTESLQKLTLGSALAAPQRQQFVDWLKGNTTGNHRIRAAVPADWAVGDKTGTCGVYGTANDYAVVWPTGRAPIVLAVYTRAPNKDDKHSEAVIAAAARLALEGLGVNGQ
T4 sequence (P05364 21-381): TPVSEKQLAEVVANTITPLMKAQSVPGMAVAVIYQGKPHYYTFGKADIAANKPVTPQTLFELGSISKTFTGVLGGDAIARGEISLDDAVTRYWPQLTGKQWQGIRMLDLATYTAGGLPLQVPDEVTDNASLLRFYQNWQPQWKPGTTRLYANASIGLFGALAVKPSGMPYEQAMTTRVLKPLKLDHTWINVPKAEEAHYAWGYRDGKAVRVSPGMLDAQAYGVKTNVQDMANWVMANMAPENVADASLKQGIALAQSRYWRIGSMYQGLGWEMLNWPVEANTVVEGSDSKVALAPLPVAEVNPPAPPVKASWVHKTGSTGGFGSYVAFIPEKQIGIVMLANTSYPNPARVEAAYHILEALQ
T1 sequence (P0A3M1 22-286): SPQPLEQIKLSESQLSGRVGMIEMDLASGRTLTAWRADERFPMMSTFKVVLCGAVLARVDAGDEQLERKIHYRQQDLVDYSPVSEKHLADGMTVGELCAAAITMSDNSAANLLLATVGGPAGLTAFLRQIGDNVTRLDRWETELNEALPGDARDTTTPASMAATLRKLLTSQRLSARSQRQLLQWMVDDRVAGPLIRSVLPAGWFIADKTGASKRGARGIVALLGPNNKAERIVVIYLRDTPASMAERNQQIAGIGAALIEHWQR

| Structure (SMILES) | IC50 [1] [nM] | IC50 [2] [nM] | IC50 [3] [nM] | IC50 [4] [nM] | IC50 [5] [nM] | MIC (μg/mL) of Exemplary Compounds in presence of fixed β-lactams: E. coli ESBL4 CTX-M-15 [6] | MIC (μg/mL) of Exemplary Compounds in presence of fixed β-lactams: K. p. 156319 KPC-3 [7] | MIC (μg/mL) of Exemplary Compounds in presence of fixed β-lactams: P. aerug. 2775 VIM-2 [8] | MIC (μg/mL) of Exemplary Compounds in presence of fixed β-lactams: K. p. A-1797 KPC-2 VIM-4 [9] | MIC (μg/mL) of Exemplary Compounds in presence of fixed β-lactams: K. p. 11978 OXA-48 [10] | MIC ([6]; Escherichia coli, read-out: MIC alone) [µg/mL] | MIC [11] [µg/mL] |
| --- | --- | --- | --- | --- | --- | --- | --- | --- | --- | --- | --- | --- |
| NCCc1cn(CC(=O)N[C@H]2Cc3cccc(C(=O)O)c3OB2O)nn1 [Example 6, (R)-3-(2-(4-(2-aminoethyl)-1H-1,2,3-triazol-1-yl)acetamido)-2-hydroxy-3,4-dihydro-2H-benzo[e][1,2]oxaborinine-8-carboxylic acid] | 100 to 1000 | < 100 | 1000 to 10000 | < 100 | 1000 to 10000 | C (C represents an MIC of <1 μg/mL) | C (C represents an MIC of <1 μg/mL) | C (C represents an MIC of <1 μg/mL) | B (B represents an MIC between 1 and 16 μg/mL inclusive) | B (B represents an MIC between 1 and 16 μg/mL inclusive) | – | – |
| O=C(Cn1cc(CNCCCC(F)(F)F)nn1)N[C@H]1Cc2cccc(C(=O)O)c2OB1O [Example 112, (R)-2-hydroxy-3-(2-(4-(((4,4,4-trifluorobutyl)amino)methyl)-1H-1,2,3-triazol-1-yl)acetamido)-3,4-dihydro-2H-benzo[e][1,2]oxaborinine-8-carboxylic acid] | 100 to 1000 | 100 to 1000 | 100 to 1000 | < 100 | 100 to 1000 | C (C represents an MIC of <1 μg/mL) | B (B represents an MIC between 1 and 16 μg/mL inclusive) | C (C represents an MIC of <1 μg/mL) | B (B represents an MIC between 1 and 16 μg/mL inclusive) | A (A represents an MIC>16 μg/mL) | – | – |
| CC(C)(O/N=C(\C(=O)N[C@@H]1C(=O)N2C(C(=O)[O-])=C(C[n+]3ccccc3)CS[C@H]12)c1csc(N)n1)C(=O)O [Ceftazidime, ceftazidime, reference compound] | – | – | – | – | – | – | – | – | – | – | > 128 | 128 |
| O=C(Cn1ccc(B(O)O)n1)N[C@H]1Cc2cccc(C(=O)O)c2OB1O [Example 116, (R)-3-(2-(3-borono-1H-pyrazol-1-yl)acetamido)-2-hydroxy-3,4-dihydro-2H-benzo[e][1,2]oxaborinine-8-carboxylic acid] | < 100 | < 100 | 1000 to 10000 | < 100 | 100 to 1000 | C (C represents an MIC of <1 μg/mL) | B (B represents an MIC between 1 and 16 μg/mL inclusive) | C (C represents an MIC of <1 μg/mL) | B (B represents an MIC between 1 and 16 μg/mL inclusive) | B (B represents an MIC between 1 and 16 μg/mL inclusive) | – | – |
| O=C(Cn1cc(CF)nn1)N[C@H]1Cc2cccc(C(=O)O)c2OB1O [Example 111, (R)-3-(2-(4-(fluoromethyl)-1H-1,2,3-triazol-1-yl)acetamido)-2-hydroxy-3,4-dihydro-2H-benzo[e][1,2]oxaborinine-8-carboxylic acid] | < 100 | < 100 | 1000 to 10000 | < 100 | 100 to 1000 | C (C represents an MIC of <1 μg/mL) | B (B represents an MIC between 1 and 16 μg/mL inclusive) | B (B represents an MIC between 1 and 16 μg/mL inclusive) | B (B represents an MIC between 1 and 16 μg/mL inclusive) | B (B represents an MIC between 1 and 16 μg/mL inclusive) | – | – |
| NCCn1cc(CC(=O)N[C@H]2Cc3cccc(C(=O)O)c3OB2O)nn1 [Example 122, (R)-3-(2-(1-(2-aminoethyl)-1H-1,2,3-triazol-4-yl)acetamido)-2-hydroxy-3,4-dihydro-2H-benzo[e][1,2]oxaborinine-8-carboxylic acid] | < 100 | < 100 | 100 to 1000 | < 100 | 100 to 1000 | C (C represents an MIC of <1 μg/mL) | B (B represents an MIC between 1 and 16 μg/mL inclusive) | C (C represents an MIC of <1 μg/mL) | B (B represents an MIC between 1 and 16 μg/mL inclusive) | B (B represents an MIC between 1 and 16 μg/mL inclusive) | – | – |
